Assay [1] concerns HL-60. As to the kind of experiment: Antiproliferative activity against human HL60 cells after 24 hrs by MTT assay. Format: functional, cell-based. The conditions noted are these: for IC50: HL-60, 24 h. Background: Tetrazolium assays rely on reduction of a dye to a coloured formazan, in cell work by metabolically active cells.
In assay [2] the test system is HL-60. As to the kind of experiment: Induction of apoptosis in human HL60 cells assessed as apoptotic cells after 12 hrs by Hoechst staining-based fluorescence microscopy. In kind it is functional, cell-based.
Assay [3] has as its system HL-60. As to the kind of experiment: Induction of apoptosis in human HL60 cells assessed as apoptotic cells at 1 uM after 12 hrs by Hoechst staining-based fluorescence microscopy. In kind it is functional.
In assay [4] the test system is HL-60. As to the kind of experiment: Induction of apoptosis in human HL60 cells assessed as peripheral nuclear chromatin condensation at 0.1 to 3 uM after 12 hrs by Hoechst staining-based fluorescence microscopy. In kind it is functional, cell-based.
Assay [5] relates to HL-60. In words: Induction of apoptosis in human HL60 cells assessed as PARP cleavage at 0.1 to 1 uM after 8 hrs by SDS-PAGE. Format: functional, cell-based.
The subject of assay [6] is HL-60. In words: Induction of apoptosis in human HL60 cells assessed as PARP cleavage at 0.1 to 1 uM after 12 hrs by SDS-PAGE. In kind it is functional, cell-based.
The subject of assay [7] is HL-60. As to the kind of experiment: Induction of apoptosis in human HL60 cells assessed as […] DNA fragmentation at 1 uM after 12 hrs by agarose gel electrophoresis. Format: functional, cell-based.
In assay [8] the test system is HL-60. As to the kind of experiment: Induction of apoptosis in human HL60 cells assessed as apoptotic cells at 10 uM after 12 hrs by Hoechst staining-based fluorescence microscopy. In kind it is functional.
The subject of assay [9] is HL-60. In words: Induction of apoptosis in human HL60 cells assessed as PARP cleavage at 1 to 10 uM after 8 hrs by SDS-PAGE. Format: functional, cell-based.
The subject of assay [10] is HL-60. As to the kind of experiment: Induction of apoptosis in human HL60 cells assessed as PARP cleavage at 1 to 10 uM after 12 hrs by SDS-PAGE. In kind it is functional, cell-based.
Assay [11] relates to HL-60. In words: Induction of apoptosis in human HL60 cells assessed as […] DNA fragmentation at 10 uM after 12 hrs by agarose gel electrophoresis. Format: functional, cell-based.

Molecules are shown by their SMILES. Calls of active or inactive are those of the source. The rule behind the calls is not given here.

`C=C1C(=O)O[C@H]2C[C@@]3(C)[C@H](C(=C)CC[C@@H]3O)[C@@H](O)[C@H]12` [ELEGALACTONE A] displayed an IC50 in the assay on HL-60 [1] of 55.1 µM.
For the compound `C=C1CC[C@H](OC(C)=O)/C(C)=C\[C@@H]2OC(=O)C(=C)[C@H]2[C@H](OC(C)=O)C1=O`, the Activity result with HL-60 [1] was “Dose-dependent effect”; in the assay with HL-60 [2], “Dose-dependent effect”; with HL-60 [3], 25.9%. Further, the IC50 with HL-60 [1] turned out to be 0.25 µM. The outcome with HL-60 [4], in the assay with HL-60 [5], in the assay with HL-60 [6] and in the assay on HL-60 [7] was Active.
As to `C=C1C(=O)O[C@H]2C[C@]3(C)[C@@H](OC(C)=O)CCC(=C)[C@@H]3[C@@H](OC(C)=O)[C@H]12`, the Activity entry with HL-60 [1] was “Dose-dependent effect”; with HL-60 [2] it was “Dose-dependent effect”; in the assay on HL-60 [8], 14.3%. Besides, in the assay with HL-60 [1], 5.3 µM corresponded to half-maximal inhibition (IC50). Besides, the outcome in the assay on HL-60 [9], in the assay on HL-60 [10] and in the assay with HL-60 [11] was Active.

As usually defined, the IC50 is the point on the concentration scale where inhibition reaches its midpoint. A lower IC50 goes with inhibition by little substance.
